Publication PMC8247773, “Benzohydrazide and Phenylacetamide Scaffolds: New Putative ParE Inhibitors” (Frontiers in Bioengineering and Biotechnology, 2021)
Converted amounts (≈) assume the structure as drawn. “And” between values parts separate entries of the source, which are not always exact repeats. Identical values can stand only once.

Key:
Vero cells [1] = test: In vitro cytotoxicity MTT assay; settings: CC50 Vero cells / IC50
[2] = system: Escherichia coli (NCIM 2065); test: Antibacterial susceptibility test, microbroth dilution MIC; type: cell-based; settings: E. Coli (NCIM 2065); mean ± SD
[3] = system: Klebsiella pneumonia (NCIM 2706); parameters: method as in Yele et al., 2020, 2021; settings: ref Yele et al., 2020, 2021; cited from earlier work
Vero cells [4] = system: Vero cells
MRSA (NCIM 5021) [5] = test: Antibacterial susceptibility test, microbroth dilution MIC; type: cell-based, methicillin-resistant Staphylococcus aureus; settings: mean ± SD
[6] = system: Mycobacterium tuberculosis (NCIM 2984); parameters: method as in Yele et al., 2020, 2021; settings: ref Yele et al., 2020, 2021; cited from earlier work
[7] = system: Staphylococcus aureus (NCIM 5022); parameters: method as in Yele et al., 2020, 2021; settings: ref Yele et al., 2020, 2021; cited from earlier work
[8] = system: Pseudomonas aeruginosa (NCIM 2036); parameters: method as in Yele et al., 2020, 2021; settings: ref Yele et al., 2020, 2021; cited from earlier work
MRSA (ATCC43300) [9] = test: Antibacterial susceptibility test, microbroth dilution MIC; type: cell-based, methicillin-resistant Staphylococcus aureus; settings: mean ± SD
[10] = system: Bacillus subtilis (NCIM 2545); parameters: method as in Yele et al., 2020, 2021; settings: ref Yele et al., 2020, 2021; cited from earlier work
[11] = system: Escherichia coli (NCIM 2567); parameters: method as in Yele et al., 2020, 2021; settings: ref Yele et al., 2020, 2021; cited from earlier work
MRSA (NCIM 5021) [12] = test: Minimum bactericidal concentration (MBC); type: cell-based, methicillin-resistant Staphylococcus aureus
Experimental: (§1) MBC can be defined as the minimum concentration of a compound required to kill the bacteria over a fixed period under precise conditions. […] Colonies were counted, and colony forming unit (CFU) per milliliter was calculated.

MRSA (ATCC43300) [13] = test: Minimum bactericidal concentration (MBC); type: cell-based, methicillin-resistant Staphylococcus aureus
Experimental: as §1

E. coli ParE enzyme = biological target: T1, E. coli ParE enzyme (Escherichia coli, UniProt P20083); test: E. coli ParE ATPase enzyme inhibition assay (ProFoldin kit, malachite green); type: biochemical; settings: ATPase activity, mean ± SD (n = 3)
T1 construct: purchased ProFoldin, Hudson, United States
Experimental: The assay was performed as per the standard protocol provided by the ProFoldin. […] ParE hydrolyzes ATP as the source of molecular energy to perform decatenation reactions. Fluoroquinolones and aminocoumarins usually block ATPase activity to hinder the biological activities of topoisomerase II. Thus, the topoisomerase ATPase assay can be used for high-throughput screening of topoisomerase inhibitors. The ATPase activity of the E. coli ParE enzyme was based on the detection of inorganic phosphate produced by the hydrolysis of ATP in the presence of DNA. The phosphate is detected using a microplate reader at an absorbance wavelength of 650 nm. The selected compounds were tested for the inhibition of ATPase activity of ParE enzyme. […] The reaction mixture was incubated for 1 h at 37°C and then quenched with 45 μL of Dye. Incubate for 5 min, and the absorbance was measured at 650 nm. The IC50 values were determined from the absorbance readings using no enzyme and no compound controls. They were calculated using the non-linear regression curve fit method.

[14] = system: Staphylococcus epidermis (NCIM 2493); parameters: method as in Yele et al., 2020, 2021; settings: ref Yele et al., 2020, 2021; cited from earlier work
[15] = system: Escherichia coli (NCIM 2065); test: Minimum bactericidal concentration (MBC); type: cell-based; settings: E. Coli (NCIM 2065); for MBC/MIC: ratio ≤2 bactericidal, ≥4 tolerance
Experimental: as §1

E. coli [16] = test: Post antibiotic effect (PAE); type: cell-based, Escherichia coli; settings: for Time for 1 log10: untreated control 2 h
E. coli [17] = test: Checkerboard synergy with FDA approved drugs; type: cell-based, Escherichia coli

T1 sequence (P20083 whole entry): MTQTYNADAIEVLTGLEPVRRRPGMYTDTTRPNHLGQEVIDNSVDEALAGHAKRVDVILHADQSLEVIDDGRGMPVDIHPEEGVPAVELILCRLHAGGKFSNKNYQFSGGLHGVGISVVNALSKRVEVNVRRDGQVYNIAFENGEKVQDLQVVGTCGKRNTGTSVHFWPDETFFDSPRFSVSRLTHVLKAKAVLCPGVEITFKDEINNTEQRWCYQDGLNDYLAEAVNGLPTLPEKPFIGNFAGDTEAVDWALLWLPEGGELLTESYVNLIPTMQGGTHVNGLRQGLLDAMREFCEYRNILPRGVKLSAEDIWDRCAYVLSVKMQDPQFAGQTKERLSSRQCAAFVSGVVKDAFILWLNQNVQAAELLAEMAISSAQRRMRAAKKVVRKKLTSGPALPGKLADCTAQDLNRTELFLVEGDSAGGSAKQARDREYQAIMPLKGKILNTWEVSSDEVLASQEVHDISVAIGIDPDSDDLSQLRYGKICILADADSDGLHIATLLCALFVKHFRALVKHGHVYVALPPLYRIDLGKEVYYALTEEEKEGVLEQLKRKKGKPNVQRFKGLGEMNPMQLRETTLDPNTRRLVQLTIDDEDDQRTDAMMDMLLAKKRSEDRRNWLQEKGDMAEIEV
T1 sequence (P0AFI2 whole entry, further chain): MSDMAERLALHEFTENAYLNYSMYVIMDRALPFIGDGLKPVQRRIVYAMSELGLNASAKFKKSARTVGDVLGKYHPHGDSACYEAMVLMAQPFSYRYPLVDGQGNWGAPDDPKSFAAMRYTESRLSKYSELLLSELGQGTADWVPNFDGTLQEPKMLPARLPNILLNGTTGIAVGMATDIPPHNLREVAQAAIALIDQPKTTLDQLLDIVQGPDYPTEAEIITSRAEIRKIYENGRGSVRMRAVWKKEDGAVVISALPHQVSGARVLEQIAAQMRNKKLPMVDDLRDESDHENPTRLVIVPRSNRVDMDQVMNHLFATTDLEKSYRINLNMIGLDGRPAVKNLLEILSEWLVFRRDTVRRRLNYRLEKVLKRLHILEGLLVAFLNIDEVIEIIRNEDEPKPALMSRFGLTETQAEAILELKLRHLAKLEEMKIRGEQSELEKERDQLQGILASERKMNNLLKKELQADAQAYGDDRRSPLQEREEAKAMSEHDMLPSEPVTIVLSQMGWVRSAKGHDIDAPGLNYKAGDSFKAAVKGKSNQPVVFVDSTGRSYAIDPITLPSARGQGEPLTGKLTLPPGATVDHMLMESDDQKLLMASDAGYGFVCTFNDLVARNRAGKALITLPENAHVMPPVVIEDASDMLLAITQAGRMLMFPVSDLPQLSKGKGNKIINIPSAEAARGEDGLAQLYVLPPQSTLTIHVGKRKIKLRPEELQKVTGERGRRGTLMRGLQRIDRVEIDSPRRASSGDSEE

| Compound | SI (CC50/IC50) (Vero cells [1]) | Minimum inhibitory concentration [2] | Minimum inhibitory concentration (MIC) K. p [3] | CC50 (Vero cells [4]) [µg/mL] | Minimum inhibitory concentration (MRSA (NCIM 5021) [5]) [µg/mL] | Minimum inhibitory concentration (MIC) M. t [6] | Minimum inhibitory concentration (MIC) S. a [7] | Minimum inhibitory concentration (MIC) P. a [8] | Minimum inhibitory concentration (MRSA (ATCC43300) [9]) [µg/mL] | Minimum inhibitory concentration (MIC) B. s [10] | Minimum inhibitory concentration (MIC) E. c [11] | MBC (MRSA (NCIM 5021) [12]) [µg/mL] | MBC/MIC (MRSA (NCIM 5021) [12]) | MBC (MRSA (ATCC43300) [13]) [µg/mL] | MBC/MIC (MRSA (ATCC43300) [13]) | IC50 against E. coli ParE enzyme (E. coli ParE enzyme) [µg/mL] | Minimum inhibitory concentration (MIC) S. e [14] | MBC [15] [µg/mL] | MBC/MIC [15] | also measured |
| --- | --- | --- | --- | --- | --- | --- | --- | --- | --- | --- | --- | --- | --- | --- | --- | --- | --- | --- | --- | --- |
| O=C(COc1ccccc1NC(=O)CCl)Nc1ccc([N+](=O)[O-])cc1 [Compound 1] | 216.0608 | 0.72 µg/mL and 0.72 ± 0.07 µg/mL | 0.78 | 213.9002 (≈ 588 µM) | 0.84 ± 0.13 (≈ 2.31 µM) | 3.85 | 2.56 | 0.69 | 0.99 ± 0.24 (≈ 2.72 µM) | 3.62 | 0.75 | 0.84 ± 0.13 (≈ 2.31 µM) | 1 | 0.99 ± 0.24 (≈ 2.72 µM) | 1 | 0.99 ± 0.01 (≈ 2.72 µM) | 2.98 | 1.42 ± 0.02 (≈ 3.9 µM) | 2 | – |
| Cc1cccc([N+](=O)[O-])c1NC(=O)COc1ccccc1NC(=O)CCl [Compound 4] | 169.0629 | 2.49 ± 0.31 µg/mL (≈ 6.59 µM) | 11.90 | 163.9911 (≈ 434 µM) | 2.69 ± 0.49 (≈ 7.12 µM) | 0.75 | 4.12 | 19.90 | 2.52 ± 0.37 (≈ 6.67 µM) | 5.97 | 4.45 | 8.00 ± 0.04 (≈ 21.2 µM) | 3 | 8.76 ± 0.21 (≈ 23.2 µM) | 3 | 0.95 (≈ 2.51 µM) | 2.05 | 4.71 ± 0.03 (≈ 12.5 µM) | 2 | – |
| O=C(COc1ccccc1NC(=O)CCl)NNC(=O)c1ccc([N+](=O)[O-])cc1 [Compound 14] | 179.8902 | 4.14 ± 0.07 µg/mL (≈ 10.2 µM) | 0.98 | 64.7605 (≈ 159 µM) | 4.35 ± 0.09 (≈ 10.7 µM) | 2.56 | 8.56 | 1.98 | 0.94 ± 0.14 (≈ 2.31 µM) | 5.70 | 0.80 | – | – | 0.94 ± 0.14 (≈ 2.31 µM) | 1 | 0.36 ± 0.03 (≈ 0.885 µM) | 5.61 | – | 1 | – |
| O=C(COc1ccccc1NC(=O)CCl)NNc1ccc([N+](=O)[O-])cc1[N+](=O)[O-] [Compound 17] | 175.3553 | 3.41 ± 0.25 µg/mL (≈ 8.05 µM) | 1.26 | 150.8056 (≈ 356 µM) | 3.71 ± 0.15 (≈ 8.75 µM) | 0.98 | 2.38 | 0.98 | 3.23 ± 0.21 (≈ 7.62 µM) | 4.89 | 1.25 | 7.46 ± 0.05 (≈ 17.6 µM) | 2 | – | – | 0.86 ± 0.12 (≈ 2.03 µM) | 3.56 | 7.2 ± 0.7 (≈ 17 µM) | 2 | – |
| O=C(CSc1nc2ccccc2s1)Nc1ccc([N+](=O)[O-])cc1 [Compound 24] | 351.6852 | 0.78 µg/mL and 0.78 ± 0.08 µg/mL | 2.24 | 168.8089 (≈ 489 µM) | 0.81 ± 0.10 (≈ 2.35 µM) | 2.52 | 0.78 | 15.0 | 0.73 ± 0.12 (≈ 2.11 µM) | 1.97 | 2.17 | 0.81 ± 0.10 (≈ 2.35 µM) | 1 | 0.73 ± 0.12 (≈ 2.11 µM) | 1 | – | 1.98 | 0.78 ± 0.08 (≈ 2.26 µM) | 1 | – |
| O=C(CNc1nc2ccccc2s1)Nc1ccccc1 [Compound 26] | – | 2.64 ± 0.31 µg/mL (≈ 9.32 µM) | 1.31 | – | 2.77 ± 0.21 (≈ 9.78 µM) | 10.1 | 0.98 | 1.22 | 2.78 ± 0.20 (≈ 9.81 µM) | 3.65 | 1.05 | 0.86 ± 0.13 (≈ 3.04 µM) | 1 | 4.32 ± 0.10 (≈ 15.2 µM) | 4 | 1.54 (≈ 5.43 µM) | 8.14 | 0.72 ± 0.05 (≈ 2.54 µM) | 1 | – |
| COc1ccc(OCC(=O)Nc2ccc(C(=O)O)cc2)cc1 [Compound 27] | – | 1.59 ± 0.38 µg/mL (≈ 5.28 µM) | 1.40 | – | 1.71 ± 0.24 (≈ 5.68 µM) | 0.79 | 0.94 | 2.21 | 1.06 ± 0.14 (≈ 3.52 µM) | 3.06 | 0.98 | 3.55 ± 0.07 (≈ 11.8 µM) | 2 | 1.06 ± 0.14 (≈ 3.52 µM) | 1 | 1.30 (≈ 4.31 µM) | 0.94 | 1.59 ± 0.38 (≈ 5.28 µM) | 1 | – |
| O=C(COc1ccc2ccccc2c1)Nc1ccc(Cl)cc1 [Compound 29] | – | 0.81 ± 0.14 µg/mL (≈ 2.6 µM) | 0.88 | – | 0.75 ± 0.19 (≈ 2.41 µM) | 0.77 | 0.90 | 5.48 | 0.91 ± 0.11 (≈ 2.92 µM) | 4.69 | 0.77 | 0.75 ± 0.19 (≈ 2.41 µM) | 1 | 0.91 ± 0.11 (≈ 2.92 µM) | 1 | 2.77 (≈ 8.88 µM) | 4.70 | 0.81 ± 0.14 (≈ 2.6 µM) | 1 | – |
| CNC(C)C1CCC(N)C(OC2C(N)CC(N)C(OC3OCC(C)(O)C(NC)C3O)C2O)O1 (stereo not shown) [Gentamicin] | – | – | – | – | – | – | – | – | – | – | – | – | – | – | – | – | – | – | – | PAE = T - C (E. coli [16]; 1 × mic): 0 h; Time for 1 log10 (E. coli [16]; 1 × mic): 2 h; PAE = T - C (E. coli [16]; 10 × mic): 1 h; Time for 1 log10 (E. coli [16]; 10 × mic): 3 h; FIC A (E. coli [17]; FIC of compound 5 in combination): 0.1453; FIC A (E. coli [17]; FIC of compound 21 in combination with the row's drug): 0.1907; FIC B (E. coli [17]; FIC of the drug in combination with compound 5): 0.1254; FIC B (E. coli [17]; FIC of the drug in combination with compound 21): 0.1510; Inference (E. coli [17]; drug combined with compound 5): Synergistic (synergistic when the ΣFICs is ≤ 0.5); Inference (E. coli [17]; drug combined with compound 21): Synergistic (synergistic when the ΣFICs is ≤ 0.5); ΣFIC A + FIC B (E. coli [17]; drug combined with compound 21): 0.3417 |
